Data: patent publication US20100113484A1, “TREATING AGENT OF UROPATHY” (ASKA PHARMACEUTICAL CO., LTD., priority 2006, published 2010)

What was measured:
[1] = molecular target: T1, human recombinant PDE9 protein (Homo sapiens, UniProt O76083); test: Measurement of PDE9-inhibiting activity ([3H]-cGMP hydrolysis); format: biochemical; settings: Tables A and C; read-out: Inhibiting Activity (IC50 value) PDE9
T1 construct: made in house; host or cells: COS-1 cells, transient transfection with pcDNA 3.1 (+); supernatant of the homogenate, not purified
T1 sequence (O76083 whole entry): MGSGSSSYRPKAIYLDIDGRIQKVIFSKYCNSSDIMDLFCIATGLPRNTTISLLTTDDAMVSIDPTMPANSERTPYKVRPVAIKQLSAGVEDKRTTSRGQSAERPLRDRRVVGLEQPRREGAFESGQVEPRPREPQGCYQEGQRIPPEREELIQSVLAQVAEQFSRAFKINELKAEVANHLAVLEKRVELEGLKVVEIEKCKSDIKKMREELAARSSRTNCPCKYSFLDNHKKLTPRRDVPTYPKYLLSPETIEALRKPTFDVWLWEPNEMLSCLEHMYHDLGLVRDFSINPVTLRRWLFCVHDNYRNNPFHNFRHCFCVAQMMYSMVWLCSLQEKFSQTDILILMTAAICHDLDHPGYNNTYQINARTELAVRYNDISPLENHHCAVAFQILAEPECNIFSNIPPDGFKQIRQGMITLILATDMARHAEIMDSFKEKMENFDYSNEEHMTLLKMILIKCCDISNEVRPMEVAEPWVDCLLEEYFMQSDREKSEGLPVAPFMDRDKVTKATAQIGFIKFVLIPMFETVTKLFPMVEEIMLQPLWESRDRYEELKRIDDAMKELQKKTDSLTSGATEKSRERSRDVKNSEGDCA
Method: Based on the base sequence of hsPDE9A1 registered with GenBank database (accession No.: AF048837), hsPDE9A1 fragment was amplified by polymerase chain reaction under the following conditions, using the following sequence (Amasham Pharmacia Biotech) as the primer and Human Prostate […] cDNA library (CLONTECH) as the template DNA, with Pfu Turbo DNA polymerase ([…]):
PCR condition: [95° C., 5 min]×1 cycle, [(95° C., 1 min), (58° C., 2 min), (72° C., 3 min)]×25 cycles, [72° C., 10 min]×1 cycle
Thus obtained hsPDE9A1 fragment was given a restricted enzymatic treatment with NheI and NotI, and thereafter inserted into pcDNA 3.1 (+) expression vector (Invitrogen) to let it serve as a human PDE9 expression vector.
Human PDE9 expression vector-transformed Escherichia coli was mass incubated to produce a large amount of human PDE9 expression vector, which was transiently transfected into COS-1 cells, with LIPOFECTAMINE 2000 Reagent (GIBCO). The cells were homogenized in ice-cooled buffer A (40 mmol/L Tris-HCl, pH7.5, 15 mmol/L benzamidine, 15 mmol/L 2-mercaptoethanol, 1 μg/mL Pepstatin A, 1 μg/mL Leupeptin, 5 mmol/L EDTA) and centrifuged at 4° C., 14,000×g for 10 minutes. The supernatant was isolated to provide human recombinant PDE9 protein solution.
This mixed solution was incubated at 30° C. for 30 minutes and the enzymatic reaction of PDE9 was terminated by heating the system in boiling water for 90 seconds. Returning the system to room temperature, 50 μL of Snake venom (SIGMA: 1 mg/mL) was added, followed by 10 minutes' incubation at 30° C., to convert the [^3H]-5′-GMP produced in the previous reaction to [^3H]-guanosine. […] Thereafter [^3H]-guanosine was eluted with 3 mL of 3 mol/L aqueous ammonia and its radiation activity was measured with liquid scintillation counter.
PDE9 inhibition of the tested compound can be calculated by the following formula: […]
From the percent inhibition at various concentration levels of each tested compound, its IC50 value against PDE9 can be determined.

[2] = molecular target: T2, human recombinant PDE5 protein (Homo sapiens, UniProt O76074); test: Measurement of PDE5-inhibiting activity; format: biochemical; settings: Tables A and C; read-out: Inhibiting Activity (IC50 value) PDE5
T2 construct: made in house; host or cells: COS-1 cells, transient transfection with pcDNA 3.1 (+); supernatant of the homogenate, not purified
Method: PCR condition: [94° C., 2 min]×1 cycle, [(94° C., 30 sec), (65° C., 30 sec), (68° C., 3 min)]×25 cycles, [68° C., 6 min]×1 cycle
Thus obtained hsPDE5A1 fragment was given a restricted enzymatic treatment with XBaI and EcoRI, and thereafter inserted into pcDNA 3.1 (+) expression vector (Invitrogen) to let it serve as a human PDE5 expression vector.
Human PDE5 expression vector-transformed Escherichia coli was mass incubated to produce a large amount of human PDE5 expression vector, which was transiently transfected into COS-1 cells, with LIPOFECTAMINE 2000 Reagent (GIBCO). The cells were homogenized in ice-cooled buffer A and centrifuged at 4° C., 14,000×g for 10 minutes. The supernatant was isolated to provide human recombinant PDE5 protein solution.

[3] = system: partial urethra obstruction model in guinea pigs; test: Dysuria pathological model: partial urethra obstruction model, cystometry; format: in vivo, Hartley female guinea pigs; settings: guinea pig, i.v.
Method: Three-four weeks old Hartley female guinea pigs (Japan SLC, Inc.) were given celiotomy under anesthesia with pentobarbital (30 mg/kg i.p.) and in their urethra to the peripheral side by 1-2 mm from the bladder neck, each a polyethylene tube of 1.4 mm in width and 2.0 mm in inner diameter was placed. After closing the wound, the guinea pigs were bred for at least 3 weeks to produce partial urethra obstruction model in guinea pigs in which occurrence of intravesical pressure rise not accompanied by micturition (uninhibited contraction) and residual urine were observed.
The model was catheterized under anesthesia with urethane (1 g/kg i.p.) at the apex of urinary bladder and right jugular vein for cystometrography and intravenous administration, respectively. The other end of the bladder catheter was connected to a pressure transducer and infusion pump via a three way stop-cock, and physiological saline was continuously infused into the bladder through the infusion pump at a rate of 0.4 mL/min to induce micturition reflex. Immediately after the micturition reflex was induced, infusion of physiological saline into the bladder was stopped. The intravesical pressure at the time the micturition reflex was induced was measured with the pressure transducer, and the obtained cystometrogram was recorded with pen recorder. The urine voided was collected with disposable type weighing dish and its weight was measured. Further the physiological saline remained in the bladder was sucked with syringe via the bladder catheter and the residual urine volume was measured. The operations of suspending the infusion of physiological saline upon induction of micturition reflex, and about 1 minute thereafter resuming the infusion of physiological saline to induce micturition reflex were repeated plural times (generally 4 times) to stabilize the micturition reflex.
After stabilizing the micturition reflex, a compound solution (prepared by dissolving the compound or methanesulfonic acid salt thereof in DMSO and diluting it with physiological saline or distilled water) or physiological saline was administered into the vein at a volume of 10 mL/kg over 4 minutes, and simultaneously the above-described micturition reflex operations were repeated until 30 minutes passed after initiation of the administration, while measuring the intravesical pressure and the volumes of micturition and residual urine. Also the frequency of uninhibited contraction occurrence during the above-described operations was recorded.

Cc1c(C(=O)O)sc2nc(Cc3cccs3)[nH]c(=O)c12 [A-2, 5-Methyl-4-oxo-2-(thiophen-2-ylmethyl)-3,4-dihydrothieno-[2,3-d]pyrimidine-6-carboxylic acid]
IC50 [1]: 40 nM
IC50 [2]: 21100 nM
Frequency of occurrence of uninhibited contraction after administration ([3]; 1 mg/kg): 0.47 times/min
Frequency of occurrence of uninhibited contraction volume change ([3]; 1 mg/kg): −0.44 times/min
Residual urine volume after administration ([3]; 1 mg/kg): 1.23 mL
Residual urine volume volume change ([3]; 1 mg/kg): -0.04 mL
Frequency of occurrence of uninhibited contraction after administration ([3]; 10 mg/kg): 0.78 times/min
Frequency of occurrence of uninhibited contraction volume change ([3]; 10 mg/kg): −0.13 times/min
Residual urine volume after administration ([3]; 10 mg/kg): 1.02 mL
Residual urine volume volume change ([3]; 10 mg/kg): -0.25 mL

Cc1c(C(=O)O)sc2nc(Cc3cccc(Cl)c3)[nH]c(=O)c12 [A-4, 2-(3-Chlorobenzyl)-5-methyl-4-oxo-3,4-dihydrothieno[2,3-d]-pyrimidine-6-carboxylic acid]
IC50 [1]: 30 nM
IC50 [2]: 6770 nM
Frequency of occurrence of uninhibited contraction after administration ([3]; 0.3 mg/kg): 0.80 times/min
Frequency of occurrence of uninhibited contraction volume change ([3]; 0.3 mg/kg): −0.36 times/min
Residual urine volume after administration ([3]; 0.3 mg/kg): 1.08 mL
Residual urine volume volume change ([3]; 0.3 mg/kg): +0.13 mL
Frequency of occurrence of uninhibited contraction after administration ([3]; 3 mg/kg): 0.49 times/min
Frequency of occurrence of uninhibited contraction volume change ([3]; 3 mg/kg): −0.67 times/min
Residual urine volume after administration ([3]; 3 mg/kg): 1.11 mL
Residual urine volume volume change ([3]; 3 mg/kg): +0.16 mL
Frequency of occurrence of uninhibited contraction after administration ([3]; 10 mg/kg): 0.60 times/min
Frequency of occurrence of uninhibited contraction volume change ([3]; 10 mg/kg): −0.56 times/min
Residual urine volume after administration ([3]; 10 mg/kg): 0.95 mL
Residual urine volume volume change ([3]; 10 mg/kg): 0.00 mL

Cc1c(C(=O)O)sc2nc(Cc3ccc(Cl)c(Cl)c3)[nH]c(=O)c12 [A-7, 2-(3,4-Dichlorobenzyl)-5-methyl-4-oxo-3,4-dihydrothieno-[2,3-d]pyrimidine-6-carboxylic acid]
IC50 [1]: 38 nM
IC50 [2]: 915 nM
Frequency of occurrence of uninhibited contraction after administration ([3]; 1 mg/kg): 0.79 times/min
Frequency of occurrence of uninhibited contraction volume change ([3]; 1 mg/kg): −0.17 times/min
Residual urine volume after administration ([3]; 1 mg/kg): 0.86 mL
Residual urine volume volume change ([3]; 1 mg/kg): +0.04 mL
Frequency of occurrence of uninhibited contraction after administration ([3]; 3 mg/kg): 0.77 times/min
Frequency of occurrence of uninhibited contraction volume change ([3]; 3 mg/kg): −0.39 times/min
Residual urine volume after administration ([3]; 3 mg/kg): 1.03 mL
Residual urine volume volume change ([3]; 3 mg/kg): -0.30 mL
Frequency of occurrence of uninhibited contraction after administration ([3]; 10 mg/kg): 0.64 times/min
Frequency of occurrence of uninhibited contraction volume change ([3]; 10 mg/kg): −0.47 times/min
Residual urine volume after administration ([3]; 10 mg/kg): 0.64 mL
Residual urine volume volume change ([3]; 10 mg/kg): -0.42 mL

O=C(O)c1cc2c(=O)[nH]c(CC3=CCCC3)nc2s1 [A-21, 2-(Cyclopent-1-enylmethyl)-4-oxo-3,4-dihydrothieno[2,3-d]-pyrimidine-6-carboxylic acid]
IC50 [1]: 22 nM
IC50 [2]: 12100 nM
Frequency of occurrence of uninhibited contraction after administration ([3]; 0.3 mg/kg): 0.55 times/min
Frequency of occurrence of uninhibited contraction volume change ([3]; 0.3 mg/kg): −0.53 times/min
Residual urine volume after administration ([3]; 0.3 mg/kg): 1.02 mL
Residual urine volume volume change ([3]; 0.3 mg/kg): -0.52 mL
Frequency of occurrence of uninhibited contraction after administration ([3]; 3 mg/kg): 0.78 times/min
Frequency of occurrence of uninhibited contraction volume change ([3]; 3 mg/kg): −0.66 times/min
Residual urine volume after administration ([3]; 3 mg/kg): 0.88 mL
Residual urine volume volume change ([3]; 3 mg/kg): -0.49 mL
Frequency of occurrence of uninhibited contraction after administration ([3]; 10 mg/kg): 0.83 times/min
Frequency of occurrence of uninhibited contraction volume change ([3]; 10 mg/kg): −0.74 times/min
Residual urine volume after administration ([3]; 10 mg/kg): 0.62 mL
Residual urine volume volume change ([3]; 10 mg/kg): -1.06 mL

Cc1c(C(=O)O)sc2nc(Cc3cccc(Cl)c3)[nH]c(=S)c12 [A-26, 2-(3-Chlorobenzyl)-5-methyl-4-thioxo-3,4-dihydrothieno-[2,3-d]pyrimidine-6-carboxylic acid]
IC50 [1]: 5 nM
IC50 [2]: 1110 nM
Frequency of occurrence of uninhibited contraction after administration ([3]; 0.3 mg/kg): 1.02 times/min
Frequency of occurrence of uninhibited contraction volume change ([3]; 0.3 mg/kg): −0.10 times/min
Residual urine volume after administration ([3]; 0.3 mg/kg): 0.91 mL
Residual urine volume volume change ([3]; 0.3 mg/kg): -0.11 mL
Frequency of occurrence of uninhibited contraction after administration ([3]; 3 mg/kg): 0.76 times/min
Frequency of occurrence of uninhibited contraction volume change ([3]; 3 mg/kg): −0.36 times/min
Residual urine volume after administration ([3]; 3 mg/kg): 0.27 mL
Residual urine volume volume change ([3]; 3 mg/kg): -0.75 mL
Frequency of occurrence of uninhibited contraction after administration ([3]; 10 mg/kg): 0.59 times/min
Frequency of occurrence of uninhibited contraction volume change ([3]; 10 mg/kg): −0.53 times/min
Residual urine volume after administration ([3]; 10 mg/kg): 0.48 mL
Residual urine volume volume change ([3]; 10 mg/kg): -0.54 mL
